Source: PubChem BioAssay AID1963437 (Molecular Pharmacology Branch, DTP, NCI, 2024)

Tested on: OVCAR-8 complex spheroid, growth inhibition
Assay: Anticancer human tumor OVCAR-8 cell line growth inhibition [Asc];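 further: spheroids exposed to agents for 7 days before readout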;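 on viability, T/C: percent viability relative to DMSO vehicle wells taken as 100%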
Conditions: for IC50: curve of first compound; for viability, T/C: stronger effect = lower value
How it was run: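 Tumor cells were grown as complex spheroids with human endothelial cells (HUVEC) and human mesenchymal stem cells as stroma. Agents were tested alone and in combination, in half-log steps down from the clinical Cmax, or from 10 microM where Cmax was unknown.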

[1] = second compound 0.00949 µM, first compound 0.00316 µM
[2] = second compound 0.00949 µM, first compound 0.01 µM
[3] = second compound 0.00949 µM, first compound 0.0316 µM
[4] = second compound 0.00949 µM, first compound 0.1 µM
[5] = second compound 0.03 µM, first compound 0.00316 µM
[6] = second compound 0.03 µM, first compound 0.01 µM
[7] = second compound 0.03 µM, first compound 0.0316 µM
[8] = second compound 0.03 µM, first compound 0.1 µM
[9] = second compound 0.0949 µM, first compound 0.00316 µM
[10] = second compound 0.0949 µM, first compound 0.01 µM
[11] = second compound 0.0949 µM, first compound 0.0316 µM
[12] = second compound 0.0949 µM, first compound 0.1 µM
[13] = second compound 0.3 µM, first compound 0.00316 µM
[14] = second compound 0.3 µM, first compound 0.01 µM
[15] = second compound 0.3 µM, first compound 0.0316 µM
[16] = second compound 0.3 µM, first compound 0.1 µM
[17] = second compound 0.949 µM, first compound 0.00316 µM
[18] = second compound 0.949 µM, first compound 0.01 µM
[19] = second compound 0.949 µM, first compound 0.0316 µM
[20] = second compound 0.949 µM, first compound 0.1 µM
[21] = second compound 3 µM, first compound 0.00316 µM
[22] = second compound 3 µM, first compound 0.01 µM
[23] = second compound 3 µM, first compound 0.0316 µM
[24] = second compound 3 µM, first compound 0.1 µM

In the case of COc1c(OCCCN2CCOCC2)ccc2c3n(c(=NC(=O)c4cnc(N)nc4)nc12)CCN3 + CCN1C(C(=O)NC23CCC(C(=O)O)(CC2)CC3)C(c2cccc(Cl)c2F)C2(C(=O)Nc3cc(Cl)ccc32)C12CCCCC2, the IC50 (second compound 0.00949 µM) is reported as > 1000 nM, the IC50 (second compound 0.03 µM) is reported as > 1000 nM and the IC50 (second compound 0.0949 µM) is reported as > 1000 nM. For the same molecule, the IC50 (second compound 0.3 µM) was > 1000 nM, the IC50 (second compound 0.949 µM) was > 1000 nM and the IC50 (second compound 3 µM) was > 1000 nM. It also gave a viability, T/C [1] of 94.7%, a viability, T/C [2] of 92.2% and a viability, T/C [3] of 113%. For the same molecule, the viability, T/C [4] was 170%, the viability, T/C (second compound 0.00949 µM, first compound 0.316 µM) was 140% and the viability, T/C (second compound 0.00949 µM, first compound 1 µM) was 97.1%. It also gave a viability, T/C [5] of 81.5%, a viability, T/C [6] of 101% and a viability, T/C [7] of 121%. For the same molecule, the viability, T/C [8] was 134%, the viability, T/C (second compound 0.03 µM, first compound 0.316 µM) was 133% and the viability, T/C (second compound 0.03 µM, first compound 1 µM) was 91.2%. For the same molecule, the viability, T/C [9] was 104%, the viability, T/C [10] was 99% and the viability, T/C [11] was 117%. It also gave a viability, T/C [12] of 165%, a viability, T/C (second compound 0.0949 µM, first compound 0.316 µM) of 154% and a viability, T/C (second compound 0.0949 µM, first compound 1 µM) of 92.4%. It also gave a viability, T/C [13] of 103%, a viability, T/C [14] of 103% and a viability, T/C [15] of 108%. For the same molecule, the viability, T/C [16] was 153%, the viability, T/C (second compound 0.3 µM, first compound 0.316 µM) was 133% and the viability, T/C (second compound 0.3 µM, first compound 1 µM) was 80%. For the same molecule, the viability, T/C [17] was 93.9%, the viability, T/C [18] was 89.8% and the viability, T/C [19] was 146%. It also gave a viability, T/C [20] of 172%, a viability, T/C (second compound 0.949 µM, first compound 0.316 µM) of 144% and a viability, T/C (second compound 0.949 µM, first compound 1 µM) of 80.9%. It also gave a viability, T/C [21] of 111%, a viability, T/C [22] of 115% and a viability, T/C [23] of 133%. For the same molecule, the viability, T/C [24] was 153%, the viability, T/C (second compound 3 µM, first compound 0.316 µM) was 126% and the viability, T/C (second compound 3 µM, first compound 1 µM) was 90.2%.

For NC(=O)C(=Cn1cnc(-c2cc(C(F)(F)F)cc(C(F)(F)F)c2)n1)c1cncnc1 + CCN1C(C(=O)NC23CCC(C(=O)O)(CC2)CC3)C(c2cccc(Cl)c2F)C2(C(=O)Nc3cc(Cl)ccc32)C12CCCCC2, the IC50 (second compound 0.00949 µM) was > 300 nM, the IC50 (second compound 0.03 µM) was > 300 nM and the IC50 (second compound 0.0949 µM) was > 300 nM. The IC50 (second compound 0.3 µM) was > 300 nM, the IC50 (second compound 0.949 µM) was > 300 nM and the IC50 (second compound 3 µM) was > 300 nM. It also gave a viability, T/C (second compound 0.00949 µM, first compound 0.000949 µM) of 98.7%, a viability, T/C (second compound 0.00949 µM, first compound 0.003 µM) of 100% and a viability, T/C (second compound 0.00949 µM, first compound 0.00949 µM) of 106%. It also gave a viability, T/C (second compound 0.00949 µM, first compound 0.03 µM) of 102%, a viability, T/C (second compound 0.00949 µM, first compound 0.0949 µM) of 81.8% and a viability, T/C (second compound 0.00949 µM, first compound 0.3 µM) of 66.3%. It also gave a viability, T/C (second compound 0.03 µM, first compound 0.000949 µM) of 96.5%, a viability, T/C (second compound 0.03 µM, first compound 0.003 µM) of 90.1% and a viability, T/C (second compound 0.03 µM, first compound 0.00949 µM) of 111%. The viability, T/C (second compound 0.03 µM, first compound 0.03 µM) was 89.5%, the viability, T/C (second compound 0.03 µM, first compound 0.0949 µM) was 82.5% and the viability, T/C (second compound 0.03 µM, first compound 0.3 µM) was 66.9%. It also gave a viability, T/C (second compound 0.0949 µM, first compound 0.000949 µM) of 88.9%, a viability, T/C (second compound 0.0949 µM, first compound 0.003 µM) of 102% and a viability, T/C (second compound 0.0949 µM, first compound 0.00949 µM) of 102%. The viability, T/C (second compound 0.0949 µM, first compound 0.03 µM) was 105%, the viability, T/C (second compound 0.0949 µM, first compound 0.0949 µM) was 80.3% and the viability, T/C (second compound 0.0949 µM, first compound 0.3 µM) was 65.9%. It also gave a viability, T/C (second compound 0.3 µM, first compound 0.000949 µM) of 93.2%, a viability, T/C (second compound 0.3 µM, first compound 0.003 µM) of 85.1% and a viability, T/C (second compound 0.3 µM, first compound 0.00949 µM) of 94%. For the same molecule, the viability, T/C (second compound 0.3 µM, first compound 0.03 µM) was 101%, the viability, T/C (second compound 0.3 µM, first compound 0.0949 µM) was 81% and the viability, T/C (second compound 0.3 µM, first compound 0.3 µM) was 68.7%. The viability, T/C (second compound 0.949 µM, first compound 0.000949 µM) was 88.1%, the viability, T/C (second compound 0.949 µM, first compound 0.003 µM) was 103% and the viability, T/C (second compound 0.949 µM, first compound 0.00949 µM) was 102%. It also gave a viability, T/C (second compound 0.949 µM, first compound 0.03 µM) of 122%, a viability, T/C (second compound 0.949 µM, first compound 0.0949 µM) of 73.4% and a viability, T/C (second compound 0.949 µM, first compound 0.3 µM) of 60%. For the same molecule, the viability, T/C (second compound 3 µM, first compound 0.000949 µM) was 116%, the viability, T/C (second compound 3 µM, first compound 0.003 µM) was 109% and the viability, T/C (second compound 3 µM, first compound 0.00949 µM) was 112%. For the same molecule, the viability, T/C (second compound 3 µM, first compound 0.03 µM) was 115%, the viability, T/C (second compound 3 µM, first compound 0.0949 µM) was 80.5% and the viability, T/C (second compound 3 µM, first compound 0.3 µM) was 59.8%.

With NC1CCC(NC2CC2c2ccccc2)CC1 (stereo unspecified) + CCN1C(C(=O)NC23CCC(C(=O)O)(CC2)CC3)C(c2cccc(Cl)c2F)C2(C(=O)Nc3cc(Cl)ccc32)C12CCCCC2 the IC50 (second compound 0.00949 µM) was > 100 nM, the IC50 (second compound 0.03 µM) was > 100 nM and the IC50 (second compound 0.0949 µM) was > 100 nM. For the same molecule, the IC50 (second compound 0.3 µM) was > 100 nM, the IC50 (second compound 0.949 µM) was > 100 nM and the IC50 (second compound 3 µM) was > 100 nM. For the same molecule, the viability, T/C (second compound 0.00949 µM, first compound 0.000316 µM) was 81.2%, the viability, T/C (second compound 0.00949 µM, first compound 0.001 µM) was 113% and the viability, T/C [1] was 91.4%. For the same molecule, the viability, T/C [2] was 109%, the viability, T/C [3] was 84.8% and the viability, T/C [4] was 90.7%. For the same molecule, the viability, T/C (second compound 0.03 µM, first compound 0.000316 µM) was 93.7%, the viability, T/C (second compound 0.03 µM, first compound 0.001 µM) was 90.2% and the viability, T/C [5] was 96.5%. It also gave a viability, T/C [6] of 93.8%, a viability, T/C [7] of 98.5% and a viability, T/C [8] of 101%. The viability, T/C (second compound 0.0949 µM, first compound 0.000316 µM) was 95.4%, the viability, T/C (second compound 0.0949 µM, first compound 0.001 µM) was 99.5% and the viability, T/C [9] was 90.2%. The viability, T/C [10] was 96.5%, the viability, T/C [11] was 98.5% and the viability, T/C [12] was 90.3%. For the same molecule, the viability, T/C (second compound 0.3 µM, first compound 0.000316 µM) was 98.9%, the viability, T/C (second compound 0.3 µM, first compound 0.001 µM) was 108% and the viability, T/C [13] was 109%. For the same molecule, the viability, T/C [14] was 110%, the viability, T/C [15] was 91.1% and the viability, T/C [16] was 103%. The viability, T/C (second compound 0.949 µM, first compound 0.000316 µM) was 89.2%, the viability, T/C (second compound 0.949 µM, first compound 0.001 µM) was 109% and the viability, T/C [17] was 88%. It also gave a viability, T/C [18] of 105%, a viability, T/C [19] of 106% and a viability, T/C [20] of 97.4%. For the same molecule, the viability, T/C (second compound 3 µM, first compound 0.000316 µM) was 113%, the viability, T/C (second compound 3 µM, first compound 0.001 µM) was 98.2% and the viability, T/C [21] was 107%. The viability, T/C [22] was 110%, the viability, T/C [23] was 119% and the viability, T/C [24] was 109%.
